The record followed here is publication PMC11374660, “The novel family of Warbicin® compounds inhibits glucose uptake both in yeast and human cells and restrains cancer cell proliferation” (Frontiers in Oncology, 2024).

The subject of test [1] is A549 lung adenocarcinoma cells. As to the kind of experiment: Proliferation of A549 lung adenocarcinoma cells. It is filed as cell-based, human. The note with it: for Selected from primary screen for growth inhibition of A549 cells at 50 µM: RPMI 1 mM glucose; for Selected for having an IC50 ratio (10 mM glucose : 1 mM glucose) of A549 growth higher than WBC-A: ratio of IC50 on 10 mM and 1 mM glucose, compared to WBC-A. Here is the method: For both adherent A549 and MCF10A H-RAS^V12 cell lines, growth curves were established using the IncuCyte® ZOOM technology. By collecting phase contrast images, the IncuCyte® software provides a calculated confluency percentage from which growth curves can be deducted. The cell number/density was measured by calculating the confluency of phase objects (cells) sticking on the bottom of the well. Cells were seeded at a density of 1000 - 1500 cells/well in a Nunc-Edge™ 96-well plate (Thermo Fisher Scientific) and growth was typically measured over 3 to 5 days. For the measurement of apoptosis induction using the MCF10A H-RAS^V12 cell line, the IncuCyte® Caspase-3/7 green dye was added to the medium in the recommended concentration at the beginning of the growth curve experiment. Apoptosis was detected by taking fluorescent images by excitation at 488 nm followed by IncuCyte® software analysis. Cell growth of the KMS-12-PE multiple myeloma cell line, which grows in suspension, was measured by manual cell counting. Cells were initially seeded at a density of 10^4 cells/well and incubated for 4 days after which the cell number was counted. For all cell lines, the same medium used for pregrowth was also used for the growth curve experiment, albeit with different glucose concentrations depending on the experimental design. With compound administration, the final concentration of DMSO never exceeded 0.1%. Typically, at least four technical repeats were included per condition.

A further test concerns yeast tps1Δ strain. As to the kind of experiment: Growth (rescue) of the yeast tps1Δ strain on galactose with or without glucose. It is filed as cell-based, S. cerevisiae. The note with it: 2.5 mM glucose. Here is the method: Growth curves were made by measuring OD595 in a 96-well plate using the Multiskan™ FC Microplate Photometer (Thermo Fisher Scientific). Typically, for tps1Δ rescue experiments, cells were (pre)grown in Complete Synthetic medium containing 110 mM galactose. Compounds were always added 10 min prior to glucose addition to ensure maximal interaction between the cells and compounds. Cells originating from the preculture were harvested, washed in medium without sugar, after which they were resuspended to an OD of 0.1 in 200 µL of the appropriate medium. At least three technical replicates were included per condition. OD595 was measured at 30°C every 30 min with a 10-min shaking interval.

Test [2] deals with glucose uptake by tps1Δ yeast cells. Briefly: Zero-trans uptake of radioactive glucose in tps1Δ yeast cells. Format: cell-based, S. cerevisiae. The note with it: tps1∆ cells, 2.5 mM glucose; read-out: IC50 values for 2.5 mM glucose uptake in tps1∆ cells. Here is the method: Zero-trans uptake of radioactively labeled [U-^14C]glucose, [U-^14C]fructose or [U-^14C]galactose by S. cerevisiae cells was determined in accordance with previous studies ([45], [75]). Cells were grown on different carbon sources depending on the experiment. For measuring glucose uptake activity in the tps1Δ and tps1Δ hxtΔ strains, cells were grown on YP medium containing 325 mM glycerol (measurement of 10 s). Typically, for compound characterization and kinetic studies in wild type and tps1Δ strains, cells were (pre)grown on Complete Synthetic medium supplemented with 110 mM galactose (measurement of 10 s). In the experiments on the influence of hexokinase activity on the sugar uptake rate, the measurement duration was shortened to 5 s and cells were always grown on YP medium containing 325 mM glycerol and 430 mM ethanol. After harvesting, cells were washed twice with ice-cold 25 mM MES-buffer pH 6, and resuspended in their respective medium without sugar to a final concentration of 45 mg (wet weight)/mL. The amount of added tracer was estimated to give a response close to at least 1000 counts per min in order to adequately counter background noise. Cells were first preincubated for 10 min at 30°C with the compound to acclimate the cells to the temperature and to allow adequate interaction with the compound prior to uptake. Next, hexose sugar was mixed with the cell suspension, which was then incubated at 30°C for 5 or 10 s, depending on the experiment, after which the cells were rapidly filtered over a glass microfiber filter (Whatman GF/C) and washed three times with ice-cold dH2O. The loaded filter was transferred to a scintillation vial containing 3 mL liquid scintillation cocktail (Ultima-Flo M, Perkin Elmer) and counted using the Hidex 300 SL. Three blank measurements per strain were typically included to account for background signal, for which the cells were first quenched before adding the radioactive label.

What is called IC50 is the concentration that gives 50% inhibition.

The structures appear in SMILES notation.

Turning to `C=C1[C@@H](C)[C@H]2[C@H](Cc3ccccc3)NC(=O)[C@]23OC(=O)/C=C/[C@H](O)CCC[C@@H](C)C/C=C/[C@H]3[C@@H]1O` [Cytochalasin B, reference compound], the “inhibition of A549 cell proliferation in prescreening” value in test [1] (50 µM, 1 mM glucose, three days) is “the strongest inhibitor of cell proliferation in this assay”.
Take `Cc1nc(SCC(=O)N2CC(C)OC(C)C2)c2c(-c3cccs3)csc2n1` (stereo not shown) [WBC-5B]: in the test on yeast tps1Δ strain, the “Rescue of the tps1∆ strain on 2.5 mM glucose at 100 µM” value (“Rescue of the tps1∆ strain” for short) is “Yes” and the “Minimal rescue concentration for growth of tps1∆ cells on 2.5 mM glucose” value (“Minimal rescue concentration for growth” below) was found to be 12.5 µM. Also, the “Selected from primary screen for growth inhibition of A549 cells at 50 µM” value in test [1] (50 µM) is on record as “No”. Also, in test [2], the 50% inhibitory concentration (IC50) was determined as 22.5 µM.
Consider `Cc1nc(SCC(=O)NC(N)=O)c2c(-c3cccs3)csc2n1` [WBC-6B], for which, in the test on yeast tps1Δ strain, the “Rescue of the tps1∆ strain” value is reported as “Yes” and the “Minimal rescue concentration for growth” value was determined as 12.5 µM. Further, the “Selected from primary screen for growth inhibition of A549 cells at 50 µM” value in test [1] (50 µM) is reported as “Yes”. Moreover, in test [1], the “Selected for having an IC50 ratio (10 mM glucose : 1 mM glucose) of A549 growth higher than WBC-A” value (shortened to “Selected for having an IC50 ratio”) is “Lower IC50 ratio”. Besides, the IC50 in test [2] was found to be 10.2 µM.
On to `Cc1nc(SCC(=O)N(C)CCC#N)c2c(-c3cccs3)csc2n1` [WBC-7B], for which, in the test on yeast tps1Δ strain, the “Rescue of the tps1∆ strain” value is “Yes” and the “Minimal rescue concentration for growth” value is 6.25 µM. Further, the “Selected from primary screen for growth inhibition of A549 cells at 50 µM” value in test [1] (50 µM) is “No”. For the same compound, the IC50 in test [2] amounted to 5.41 µM.
Regarding `Cc1nc(SCC(=O)Nc2cc(C)on2)c2c(-c3cccs3)csc2n1` [WBC-10C], in the test with yeast tps1Δ strain, the “Rescue of the tps1∆ strain” value was “Yes” and the “Minimal rescue concentration for growth” value was found to be 6.25 µM. In addition, in test [1] (50 µM), the “Selected from primary screen for growth inhibition of A549 cells at 50 µM” value is “Yes”. In test [1], the “Selected for having an IC50 ratio” value is on record as “Lower IC50 ratio”. The half-inhibitory concentration (IC50) in test [2] came out at 24.8 µM.
Turning to `Cc1nc(SCC(N)=O)c2c(-c3cccs3)csc2n1` [WBC-14A], in the test with yeast tps1Δ strain, the “Rescue of the tps1∆ strain” value is “Yes” and the “Minimal rescue concentration for growth” value was found to be 25 µM. The “Selected from primary screen for growth inhibition of A549 cells at 50 µM” value in test [1] (50 µM) is listed as “No”. Also, the 50% inhibitory concentration (IC50) in test [2] turned out to be 27.9 µM.
Turning to `COCCCNC(=O)CSc1nc(C)nc2scc(-c3cccs3)c12` [WBC-15B], in the test with yeast tps1Δ strain, the “Rescue of the tps1∆ strain” value is “Yes” and the “Minimal rescue concentration for growth” value was 25 µM. The “Selected from primary screen for growth inhibition of A549 cells at 50 µM” value in test [1] (50 µM) is listed as “No”. For the same compound, the IC50 in test [2] was found to be 32.7 µM.
As for `CCn1c(CCC(N)=O)nnc1Sc1nc(C)nc2scc(-c3cccs3)c12` [WBC-16C], in the test on yeast tps1Δ strain, the “Rescue of the tps1∆ strain” value is recorded as “Yes” and the “Minimal rescue concentration for growth” value was found to be 50 µM. The “Selected from primary screen for growth inhibition of A549 cells at 50 µM” value in test [1] (50 µM) was “Yes”. Besides, the “Selected for having an IC50 ratio” value in test [1] is “Lower IC50 ratio”. In test [2], the IC50 was found to be 49.6 µM.
In the case of `Cc1nc(Sc2nnc(-c3cccnc3)n2C)c2c(-c3cccs3)csc2n1` [WBC-23A], in the test with yeast tps1Δ strain, the “Rescue of the tps1∆ strain” value was “Yes” and the “Minimal rescue concentration for growth” value was 25 µM. Further, in test [1] (50 µM), the “Selected from primary screen for growth inhibition of A549 cells at 50 µM” value is given as “Yes”. Also, in test [1], the “Selected for having an IC50 ratio” value was “Lower IC50 ratio”. Also, the IC50 in test [2] came to 8.6 µM.
As to `Cc1nc(Sc2nnc(-c3ccncc3)n2C)c2c(-c3cccs3)csc2n1` [WBC-26A], in the test on yeast tps1Δ strain, the “Rescue of the tps1∆ strain” value is on record as “Yes” and the “Minimal rescue concentration for growth” value worked out at 25 µM. Also, the “Selected from primary screen for growth inhibition of A549 cells at 50 µM” value in test [1] (50 µM) is “Yes”. In test [1], the “Selected for having an IC50 ratio” value is given as “Lower IC50 ratio”. The IC50 in test [2] was found to be 5.35 µM.
Take `Cc1nc(SCCN2CCOC2=O)c2c(-c3cccs3)csc2n1` [WBC-26C]: in the test with yeast tps1Δ strain, the “Rescue of the tps1∆ strain” value is on record as “Yes” and the “Minimal rescue concentration for growth” value worked out at 25 µM. In addition, in test [1] (50 µM), the “Selected from primary screen for growth inhibition of A549 cells at 50 µM” value is on record as “No”. The IC50 in test [2] worked out at 23.8 µM.
For `CC(=O)NCc1ccc(C(=O)CSc2nc(C)nc3scc(-c4cccs4)c23)o1` [WBC-29B] the same measures were “Yes”, 6.25 µM, “No” and 9.23 µM.
In the case of `Cc1nc(SCC(=O)NC(C)(C)C)c2c(-c3cccs3)csc2n1` [WBC-32B], in the test on yeast tps1Δ strain, the “Rescue of the tps1∆ strain” value is reported as “Yes” and the “Minimal rescue concentration for growth” value amounted to 12.5 µM. Moreover, the “Selected from primary screen for growth inhibition of A549 cells at 50 µM” value in test [1] (50 µM) is on record as “Yes”. Also, in test [1], the “Selected for having an IC50 ratio” value was “Lower IC50 ratio”. In test [2], the IC50 stood at 30.3 µM.
With `CCn1c(Sc2nc(C)nc3scc(-c4cccs4)c23)nnc1-c1ccncc1` [WBC-43C], in the test with yeast tps1Δ strain, the “Rescue of the tps1∆ strain” value was “Yes” and the “Minimal rescue concentration for growth” value was 12.5 µM. The “Selected from primary screen for growth inhibition of A549 cells at 50 µM” value in test [1] (50 µM) is recorded as “Yes”. In addition, the IC50 in test [2] was found to be 8.93 µM.
As to `Cc1nc(SCCN2CCOCC2)c2c(-c3cccs3)csc2n1` [WBC-44A], in the test with yeast tps1Δ strain, the “Rescue of the tps1∆ strain” value is “Yes” and the “Minimal rescue concentration for growth” value was found to be 50 µM. Besides, in test [1] (50 µM), the “Selected from primary screen for growth inhibition of A549 cells at 50 µM” value is recorded as “Yes”. The “Selected for having an IC50 ratio” value in test [1] is “Lower IC50 ratio”. Besides, in test [2], the IC50 turned out to be 61.8 µM.
Regarding `Cc1nc(SCCO)c2c(-c3cccs3)csc2n1` [WBC-47A], in the test with yeast tps1Δ strain, the “Rescue of the tps1∆ strain” value is recorded as “Yes” and the “Minimal rescue concentration for growth” value came out at 6.25 µM. In addition, the “Selected from primary screen for growth inhibition of A549 cells at 50 µM” value in test [1] (50 µM) was “Yes”. Moreover, the “Selected for having an IC50 ratio” value in test [1] was “Lower IC50 ratio”. For the same compound, in test [2], the IC50 amounted to 15.6 µM.
Turning to `CCCc1nnc(Sc2nc(C)nc3scc(-c4cccs4)c23)[nH]1` [WBC-50C], in the test with yeast tps1Δ strain, the “Rescue of the tps1∆ strain” value is “Yes” and the “Minimal rescue concentration for growth” value is recorded as 50 µM. Also, the “Selected from primary screen for growth inhibition of A549 cells at 50 µM” value in test [1] (50 µM) is “Yes”. In test [1], the “Selected for having an IC50 ratio” value is recorded as “Lower IC50 ratio”. Besides, in test [2], the IC50 was 67.8 µM.
Take `COC(=O)CSc1nc(C)nc2scc(-c3cccs3)c12` [WBC-53A]: in the test with yeast tps1Δ strain, the “Rescue of the tps1∆ strain” value is on record as “Yes” and the “Minimal rescue concentration for growth” value is 12.5 µM. Also, the “Selected from primary screen for growth inhibition of A549 cells at 50 µM” value in test [1] (50 µM) is listed as “No”. Also, the half-inhibitory concentration (IC50) in test [2] was 26.8 µM.
`Cc1nc(Sc2nnc(C(F)(F)F)n2C)c2c(-c3cccs3)csc2n1` [WBC-54C]: in the test on yeast tps1Δ strain, the “Rescue of the tps1∆ strain” value is given as “Yes” and the “Minimal rescue concentration for growth” value stood at 50 µM. For the same compound, the “Selected from primary screen for growth inhibition of A549 cells at 50 µM” value in test [1] (50 µM) is “Yes”. For the same compound, the “Selected for having an IC50 ratio” value in test [1] is reported as “Lower IC50 ratio”. Also, the half-maximal inhibitory concentration (IC50) in test [2] was determined as 64.7 µM.
As to `Cc1nc(Sc2nnc3n2CCC(CN=[N+]=[N-])CC3)c2c(-c3cccs3)csc2n1` (stereo not shown) [WBC-87C], in the test on yeast tps1Δ strain, the “Rescue of the tps1∆ strain” value is given as “Yes” and the “Minimal rescue concentration for growth” value was 12.5 µM. For the same compound, the “Selected from primary screen for growth inhibition of A549 cells at 50 µM” value in test [1] (50 µM) is on record as “Yes”. For the same compound, the “Selected for having an IC50 ratio” value in test [1] is “Lower IC50 ratio”. In test [2], the concentration for half-maximal inhibition (IC50) worked out at 11.1 µM.
